Experimental data as given in patent US8927538B2, “Carbazole linked pyrrolo[2,1-c][1,4]benzodiazefine hybrids as potential anticancer agents and process for the preparation thereof” (Council of Scientific & Industrial Research, priority 2010, dated 2015).

Experiments:
[1] = system: sixty human tumour cell lines derived from nine cancer types; experiment: NCI in vitro cytotoxicity screen (SRB), sixty cell lines; assay type: cell-based; conditions: for GI50: 48 hrs continuous drug exposure, SRB, read-out: GI50 against sixty cell lines in nine cancer cell panels; for in vitro cytotoxicity: sixty cell lines from nine human cancer types
Description: (§1) The C8-linked carbazole-PBD hybrids have been tested against sixty human tumour cell lines derived from nine cancer types (leukemia, non-small cell lung cancer, colon cancer, CNS cancer, melanoma, ovarian cancer, renal cancer, prostate cancer and breast cancer) as per NCI protocol, For each compound, dose response curves for individual cell lines have been measured at a minimum of five concentrations at 10 fold dilutions. A protocol of 48 hrs continuous drug exposure has been used, and a sulforhodamine B (SRB) protein assay was used to estimate cell viability or growth. The concentration for 50% cell growth inhibition (GI50), total cell growth inhibition (TGI, 0% growth) and 50% cell death (LC50, […]) compared with the control has been calculated (Table-3).
(§2) Compounds 6c and 14a have been evaluated for in vitro cytotoxicity in sixty cell lines from nine human cancer types of lung (Hop-62, NCI-H226, NCI-H522), leukemia (K-562, SR), colon (HCT-116, HCT-15, HCC-2998), CNS(SF-539), melanoma (SK-MEL-5, UACC-62, M14), ovarian (IGROV1), renal (A498), prostate (PC3) breast (BT-549, MDA-MB-435, HS578T) origin. The results are expressed as percent of cell growth determined relative to that of untreated control cells (Table 1).

[2] = system: Non small cell lung cancer cell lines; experiment: NCI SRB cytotoxicity, non-small cell lung panel; assay type: cell-based, human; conditions: average of six to eight cell lines
Description: as §1, §2

[3] = system: Melanoma cancer cell lines; experiment: NCI SRB cytotoxicity, melanoma panel; assay type: cell-based, human; conditions: average of six to eight cell lines
Description: as §1, §2

[4] = system: ovarian cancer cell lines; experiment: NCI SRB cytotoxicity, ovarian panel; assay type: cell-based, human; conditions: average of six to eight cell lines
Description: as §1, §2

Renal cancer cell lines = experiment: NCI SRB cytotoxicity, renal panel; assay type: cell-based, human; conditions: average of six to eight cell lines
Description: as §1, §2

breast cancer cell lines = experiment: NCI SRB cytotoxicity, breast panel; assay type: cell-based, human; conditions: average of six to eight cell lines
Description: as §1, §2

HL-60(TB) = experiment: NCI SRB cytotoxicity, HL-60(TB); assay type: cell-based, human; conditions: Leukemia HL-60(TB), 48 hrs exposure
Description: as §1, §2

HOP-62 = experiment: NCI SRB cytotoxicity, HOP-62; assay type: cell-based, human; conditions: Non-small cell lung HOP-62, 48 hrs exposure
Description: as §1, §2

COLO 205 = experiment: NCI SRB cytotoxicity, COLO 205; assay type: cell-based, human; conditions: Colon COLO 205, 48 hrs exposure
Description: as §1, §2

HCC-2998 = experiment: NCI SRB cytotoxicity, HCC-2998; assay type: cell-based, human; conditions: Colon HCC-2998, 48 hrs exposure
Description: as §1, §2

HCT-15 = experiment: NCI SRB cytotoxicity, HCT-15; assay type: cell-based, human; conditions: Colon HCT-15, 48 hrs exposure
Description: as §1, §2

SF-539 = experiment: NCI SRB cytotoxicity, SF-539; assay type: cell-based, human; conditions: CNS SF-539, 48 hrs exposure
Description: as §1, §2

MALME-3M = experiment: NCI SRB cytotoxicity, MALME-3M; assay type: cell-based, human; conditions: Melanoma MALME-3M, 48 hrs exposure
Description: as §1, §2

SK-MEL-5 = experiment: NCI SRB cytotoxicity, SK-MEL-5; assay type: cell-based, human; conditions: Melanoma SK-MEL-5, 48 hrs exposure
Description: as §1, §2

UACC-257 = experiment: NCI SRB cytotoxicity, UACC-257; assay type: cell-based, human; conditions: Melanoma UACC-257, 48 hrs exposure
Description: as §1, §2

IGROV1 = experiment: NCI SRB cytotoxicity, IGROV1; assay type: cell-based, human; conditions: Ovarian IGROV1, 48 hrs exposure
Description: as §1, §2

OVCAR-3 = experiment: NCI SRB cytotoxicity, OVCAR-3; assay type: cell-based, human; conditions: Ovarian OVCAR-3, 48 hrs exposure
Description: as §1, §2

OVCAR-4 = experiment: NCI SRB cytotoxicity, OVCAR-4; assay type: cell-based, human; conditions: Ovarian OVCAR-4, 48 hrs exposure
Description: as §1, §2

A498 = experiment: NCI SRB cytotoxicity, A498; assay type: cell-based, human; conditions: Renal A498, 48 hrs exposure
Description: as §1, §2

CAKI-1 = experiment: NCI SRB cytotoxicity, CAKI-1; assay type: cell-based, human; conditions: Renal CAKI-1, 48 hrs exposure
Description: as §1, §2

RXF 393 = experiment: NCI SRB cytotoxicity, RXF 393; assay type: cell-based, human; conditions: Renal RXF 393, 48 hrs exposure
Description: as §1, §2

MDA-MB- = experiment: NCI SRB cytotoxicity, MDA-MB-; assay type: cell-based, human; conditions: Breast MDA-MB-, 48 hrs exposure
Description: as §1, §2

HS 578T = experiment: NCI SRB cytotoxicity, HS 578T; assay type: cell-based, human; conditions: Breast HS 578T, 48 hrs exposure
Description: as §1, §2

MDA-MB-435 = experiment: NCI SRB cytotoxicity, MDA-MB-435; assay type: cell-based, human; conditions: Breast MDA-MB-435, 48 hrs exposure
Description: as §1, §2

[5] = system: duplex-form calf thymus DNA (CT-DNA); experiment: Thermal denaturation studies (DNA binding); conditions: [PBD]:[DNA] molar ratio 1:5, CT-DNA 100 μM, ligand 20 μM; for ΔTm after incubation at 37 °C for 0 h: pH 7.00, 0 h; for ΔTm after incubation at 37 °C for 18 h: pH 7.00, 18 h
Experimental: Compounds have been subjected to thermal denaturation studies with duplex-form calf thymus DNA (CT-DNA) using a modification of a reported procedure. Working solutions in aqueous buffer ([…] NaH2PO4/Na2HPO4, 1 mM Na2EDTA, pH 7.00±0.01) containing CT-DNA (100 μM in phosphate) and the PBD (20 μM) have been prepared by addition of concentrated PBD solutions in DMSO to obtain a fixed [PBD]/[DNA] molar ratio of 1:5. The DNA-PBD solutions have been incubated at 37° C. for 0 and 18 hrs prior to analysis. Samples have been monitored at 260 nm using a Beckman DU-800 spectrophotometer fitted with high performance temperature controller, and heated at 1° C. min^−1 in the 40-110° C. range. DNA helix→coil transition temperatures (Tm) have been obtained from the maxima in the d(A260)/dT derivative plots. Drug-induced alterations in DNA melting behavior are given by: […]Tm=Tm(DNA+PBD)-Tm(DNA alone), where the Tm value for the PBD-free CT-DNA is 68.5 […]0.01.
The DNA-binding for these C8-linked carbazole-PBD hybrids has been examined by thermal denaturation studies using calf thymus (CT) DNA. […] Data for 6a, 6b, 6c, 14a, 14b, and 14d and DC-81 are included in Table 5 for comparison.

[6] = against nine human tumor cell lines

Row | Structure (SMILES) | GI50 [1] | Log10 TGI mean graph midpoint (MG_MID) ([1]; human tumour cell lines) | in vitro cytotoxicity [1] | Log10 GI50 [2] | Log10 LC50 (concentration causing 50% lethality) [2] | Log10 GI50 [3] | Log10 LC50 (concentration causing 50% lethality) [3] | Log10 GI50 [4] | Log10 LC50 (concentration causing 50% lethality) [4] | Log10 LC50 (concentration causing 50% lethality) (Renal cancer cell lines) | Log10 GI50 (breast cancer cell lines) | Log10 LC50 (concentration causing 50% lethality) (breast cancer cell lines) | GI50 (HL-60(TB)) | GI50 (HOP-62) | GI50 (COLO 205) | GI50 (HCC-2998) | GI50 (HCT-15) | GI50 (SF-539) | GI50 (MALME-3M) | GI50 (SK-MEL-5) | further results
1 | COc1cc2c(cc1OCCCN1CCN(CCCn3c4ccccc4c4ccccc43)CC1)N=C[C@@H]1CCCN1C2=O [Compound 14a] | < 10 nM | −6.24 | significant cytotoxicity against some cancer cell lines | −6.96 mol/L | −5.62 mol/L | −6.91 mol/L | −6.06 mol/L | −7.22 mol/L | −5.80 mol/L | −5.61 mol/L | −6.96 mol/L | −5.59 mol/L | 30 nM | 80 nM | 70 nM | 130 nM | 280 nM | 120 nM | 150 nM | 230 nM | activity of 14a compared with 6c ([1]; GI50 comparison): ten folds higher activity than 6c; Log10 GI50 (Renal cancer cell lines): −6.72 mol/L; GI50 (UACC-257): 150 nM; GI50 (IGROV1): < 10 nM; GI50 (OVCAR-3): 69 nM; GI50 (OVCAR-4): 100 nM; GI50 (A498): 170 nM; GI50 (CAKI-1): 120 nM; GI50 (RXF 393): 220 nM; GI50 (MDA-MB-): 950 nM; GI50 (HS 578T): 160 nM; GI50 (MDA-MB-435): < 10 nM; ΔTm after incubation at 37 °C for 0 h [5]: 7.5 °C; ΔTm after incubation at 37 °C for 18 h [5]: 8.2 °C
2 | COc1cc2c(cc1OCCCCCn1c3ccccc3c3ccccc31)N=C[C@@H]1CCCN1C2=O [Compound 6c, 7-Methoxy-8-[5-(9H-9-carbazoly)pentyloxy]-(11aS)-1,2,3,11a-tetrahydro-5H-Pyrrolo[2,1-c][1,4]benzodiazepin-5-one] | 1030 nM | −5.29 | significant cytotoxicity against some cancer cell lines | −5.64 mol/L | −4.78 mol/L | −5.71 mol/L | −4.74 mol/L | −5.57 mol/L | −4.59 mol/L | −4.99 mol/L | −5.67 mol/L | −4.47 mol/L | 1720 nM | 1800 nM | 2110 nM | 1710 nM | 1670 nM | 1850 nM | 2200 nM | 1730 nM | log10 GI50 mean graph midpoint value [1, 6]: −5.67 mol/lit; log10 LC50 mean graph midpoint value [1, 6]: −4.67 mol/lit; log10 TGI mean graph midpoint value [1, 6]: −5.29 mol/lit; Log10 GI50 mean graph midpoint (MG_MID) ([1]; human tumour cell lines): −5.67; Log10 LC50 mean graph midpoint (MG_MID) ([1]; human tumour cell lines): −4.67; GI50 (UACC-257): 2290 nM; GI50 (IGROV1): 2080 nM; GI50 (OVCAR-3): 1880 nM; GI50 (OVCAR-4): 3090 nM; GI50 (A498): 1770 nM; GI50 (CAKI-1): 1930 nM; GI50 (RXF 393): 4340 nM; GI50 (MDA-MB-): 2140 nM; GI50 (HS 578T): 1970 nM; GI50 (MDA-MB-435): 1730 nM; ΔTm after incubation at 37 °C for 0 h [5]: 4.1 °C; ΔTm after incubation at 37 °C for 18 h [5]: 4.9 °C
